Earlier results on six molecules are cited in US8481574B2, “Compounds as cannabinoid receptor ligands” (priority 2006, dated 2013).

The test system of one data set is animal models of pain. The conditions noted are these: animal models of acute thermal pain, persistent pain, inflammatory pain and neuropathic pain.
For data set [1] the following is noted: at fully efficacious doses.
The next data set concerns rodent models of pain. As to conditions: rodent models of neuropathic, incisional, and both chronic and acute inflammatory pain.
In another data set the test system is rat. The conditions noted are these: rat formalin model of persistent pain.
In a further data set the test system is microglia. The conditions noted are these: in vitro.
For data set [2], the system named is CB1 receptor knockout mice.
The test system of data set [3] is apolipoprotein E knockout mice. The conditions noted are these: low doses.
For the next data set, the system named is mice. As to conditions: model for post-menopausal osteoporosis.

As for `CN1CCCCC1Cn1cc(C(=O)c2cc([N+](=O)[O-])ccc2I)c2ccccc21` (stereo not shown) [AM-1241], the analgesic efficacy result with animal models of pain was “robust analgesic efficacy”. For the same molecule, in data set [1], the “CB1 receptor-mediated CNS side effects” value is “devoid of typical CB1 receptor-mediated CNS side effects”. On to `COc1ccc2c(c1)c(CCN1CCOCC1)c(C)n2C(=O)c1cccc(Cl)c1Cl` [GW405833], for which the “efficacy in pain models” value in the data set on rodent models of pain is recorded as “efficacious”. Moreover, the “CB1 receptor-mediated CNS side effects” value in data set [1] is “devoid of typical CB1 receptor-mediated CNS side effects”. `CCCCCCC(C)(C)c1cc(OC)c([C@@H]2C=C(CO)[C@@H]3C[C@H]2C3(C)C)c(OC)c1` [HU-308]: in the data set with rat, the antinociceptive response result is “elicits an antinociceptive response”. As for `CCCC(C)(C)c1ccc2c(c1)OC(C)(C)[C@@H]1CC=C(C)C[C@@H]21` [JWH-133], in the data set with microglia, the “effect on β-amyloid-induced microglial activation and neurotoxicity” value is “abrogated β-amyloid-induced microglial activation and neurotoxicity”. Consider (−)-Δ^9-Tetrahydrocannabinol [Δ^9-THC], for which the analgesic efficacy entry in data set [2] is “retains some analgesic efficacy”. Besides, the “effect on progression of atherosclerotic lesions” value in data set [3] is “slowed the progression of atherosclerotic lesions”. As for SR144528, the “effect on osteoclast activity” value in the data set with osteoclast is recorded as “inhibit osteoclast activity”. Also, the “effect on ovariectomy-induced bone loss” value with mice is listed as “reverse ovariectomy-induced bone loss”.
